Test results taken from patent publication US11236086B2, “Substituted pyrrolopyridines as inhibitors of activin receptor-like kinase” (BLUEPRINT MEDICINES CORPORATION, priority 2017, dated 2022).

Key:
[1] = target: T1, ALK2R206H (mutant ALK2, N-terminally tagged with GST) (Homo sapiens, UniProt Q04771, R206H); assay: ALK binding assay (LANTHASCREEN TR-FRET competitive binding, displacement of Kinase Tracer 178); settings: read-out: Binding Assay (IC50 class)
T1 construct: purchased Carna Bioscience or ThermoFisher 09-148 or PV6232
T1 sequence (Q04771 21-509 R206H): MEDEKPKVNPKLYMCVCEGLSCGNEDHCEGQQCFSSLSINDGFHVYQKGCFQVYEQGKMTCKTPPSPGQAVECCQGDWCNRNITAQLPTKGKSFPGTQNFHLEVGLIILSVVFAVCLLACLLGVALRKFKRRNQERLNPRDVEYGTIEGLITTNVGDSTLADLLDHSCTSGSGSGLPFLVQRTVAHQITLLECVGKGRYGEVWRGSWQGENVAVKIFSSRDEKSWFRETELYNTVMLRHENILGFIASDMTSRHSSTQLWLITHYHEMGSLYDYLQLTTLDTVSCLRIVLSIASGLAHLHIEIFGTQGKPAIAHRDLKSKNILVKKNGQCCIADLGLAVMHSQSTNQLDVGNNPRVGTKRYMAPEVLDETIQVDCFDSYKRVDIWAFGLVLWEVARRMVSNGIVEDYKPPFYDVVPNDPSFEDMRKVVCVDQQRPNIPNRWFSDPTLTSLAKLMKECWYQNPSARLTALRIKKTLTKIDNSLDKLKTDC
In short: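 Competitive displacement of Kinase Tracer 178 (50 nM) from N-terminally GST-tagged mutant ALK2 R206H (2-5 nM) by compound, detected by TR-FRET with Eu-anti-GST antibody (4-10 nM). 30 min room temperature incubation, 1% DMSO final; normalized signal fitted to 4-parameter log dose response for IC50.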

human ALK2 R206H = target: T2, human ALK2 R206H (Homo sapiens, UniProt Q04771, R206H); assay: Cell-based ALK2-R206H cell activity assay (Smad1-Ser463/Ser465 phosphorylation by AlphaLISA in HEK293-ALK2-R206H cells); settings: phospho-Smad1 AlphaLISA, read-out: Cell Line (Cell Assay, IC50 class)
T2 construct: expressed in transfected cells; host or cells: HEK293 (ATCC CRL1573), lentivirus transduction, blasticidin selection
T2 sequence (Q04771 21-509 R206H): T1 sequence (Q04771 21-509 R206H)
In short: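 IC50 comes from a 10-point curve, scaled between DMSO and 1 μM LDN193189 controls, of lysate phospho-Smad1 (Ser463/465) measured by AlphaLISA. Compounds (top 10 μM or 1 μM, 3-fold steps, duplicates) were given 2-3 h to serum-starved HEK293 cells that stably express FLAG-tagged human ALK2 R206H.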

Compound: O=C(OC1COC1)N1CCN(c2ccnc3[nH]c(-c4csc(N5CCC(O)CC5)n4)cc23)CC1 [Compound 450]
- IC50 [1]: ≤ 10 nM
- IC50 (human ALK2 R206H): 100 to 500 nM

Compound: Cn1cnc(-c2[nH]c3nccc(N4CCN(C(=O)OC5COC5)CC4)c3c2C#N)c1 [Compound 208]
- IC50 [1]: ≤ 10 nM
- IC50 (human ALK2 R206H): ≤ 100 nM

Compound: Cn1cc(-c2[nH]c3nccc(N4CCN(C(=O)OC5CC5)CC4)c3c2C#N)cn1 [Compound 129]
- IC50 [1]: ≤ 10 nM
- IC50 (human ALK2 R206H): ≤ 100 nM

Compound: Cn1cc(-c2cc3c(N4CCN(C(=O)O[C@H]5C[C@@H](O)C5)CC4)ccnc3[nH]2)cn1 [Compound 149]
- IC50 [1]: ≤ 10 nM
- IC50 (human ALK2 R206H): 100 to 500 nM

Compound: O=C(OC1COC1)N1CCN(c2ccnc3[nH]c(-c4cn([C@H]5CCOC5)cn4)cc23)CC1 [Compound 359]
- IC50 [1]: ≤ 10 nM
- IC50 (human ALK2 R206H): ≤ 100 nM

Compound: O=C(OC1COC1)N1CCN(c2ccnc3[nH]c(-c4cn5c(n4)CCC5)cc23)CC1 [Compound 218]
- IC50 [1]: ≤ 10 nM
- IC50 (human ALK2 R206H): ≤ 100 nM

Compound: O=C(OC1COC1)N1CCN(c2ccnc3[nH]c(-c4ccc([C@@]5(O)CCOC5)cc4)cc23)CC1 [Compound 428]
- IC50 [1]: ≤ 10 nM
- IC50 (human ALK2 R206H): ≤ 100 nM

Compound: CCn1cnc(-c2[nH]c3nccc(N4CCN(C(=O)OC5COC5)CC4)c3c2C#N)c1 [Compound 290]
- IC50 [1]: ≤ 10 nM
- IC50 (human ALK2 R206H): ≤ 100 nM

Compound: O=C(C1CC1)N1CCN(c2ccnc3[nH]c(-c4cnn(Cc5ccccc5)c4)cc23)CC1 [Compound 315]
- IC50 [1]: ≤ 10 nM
- IC50 (human ALK2 R206H): ≤ 100 nM

Compound: CC(C)(C)c1ccc(-c2cc3c(N4CCN(C(=O)C5CC5)CC4)ccnc3[nH]2)cc1 [Compound 185]
- IC50 [1]: ≤ 10 nM
- IC50 (human ALK2 R206H): 100 to 500 nM

Compound: Cn1cc(-c2cc3c(N4CCN(C(=O)OC5COC5)CC4)ccnc3[nH]2)nc1Cl [Compound 275]
- IC50 [1]: ≤ 10 nM
- IC50 (human ALK2 R206H): ≤ 100 nM

Compound: Cn1cc(-c2cc3c(N4CCN(C(=O)OC5CCOCC5)CC4)ccnc3[nH]2)cn1 [Compound 234]
- IC50 [1]: ≤ 10 nM
- IC50 (human ALK2 R206H): 100 to 500 nM

Compound: COc1ccc(-c2cc3c(N4CCN(C(=O)[C@H]5CC[C@H](O)CC5)CC4)ccnc3[nH]2)cc1 [Compound 349]
- IC50 [1]: ≤ 10 nM
- IC50 (human ALK2 R206H): ≤ 100 nM

Compound: CCOC(=O)N1CCN(c2ccnc3[nH]c(-c4cnn(C)c4C#N)cc23)CC1 [Compound 70]
- IC50 [1]: ≤ 10 nM
- IC50 (human ALK2 R206H): ≤ 100 nM

Compound: Cn1cc(-c2cc3c(N4CCN(C(=O)OC5COC5)CC4)ccnc3[nH]2)c(Cl)n1 [Compound 277]
- IC50 [1]: ≤ 10 nM
- IC50 (human ALK2 R206H): ≤ 100 nM

Compound: O=C(OC1COC1)N1CCN(c2ccnc3[nH]c(-c4nc5c(s4)COCC5)cc23)CC1 [Compound 371]
- IC50 [1]: ≤ 10 nM
- IC50 (human ALK2 R206H): ≤ 100 nM

Compound: Cn1cnc(-c2cc3c(N4CCN(C(=O)O[C@@H]5CCC5(F)F)CC4)ccnc3[nH]2)c1 [Compound 264]
- IC50 [1]: ≤ 10 nM
- IC50 (human ALK2 R206H): ≤ 100 nM

Compound: O=C(COc1ccc(-c2cc3c(N4CCN(C(=O)C5CC5)CC4)ccnc3[nH]2)cc1)N1CCC1 [Compound 420]
- IC50 [1]: ≤ 10 nM
- IC50 (human ALK2 R206H): 100 to 500 nM

Compound: Cc1nc(-c2cc3c(N4CCN(C(=O)OC5CCC5)CC4)ccnc3[nH]2)cs1 [Compound 159]
- IC50 [1]: ≤ 10 nM
- IC50 (human ALK2 R206H): ≤ 100 nM

Compound: CCOC(=O)N1CCN(c2ccnc3[nH]c(-c4cnn(C)c4)c(F)c23)CC1 [Compound 50]
- IC50 [1]: ≤ 10 nM
- IC50 (human ALK2 R206H): ≤ 100 nM

Compound: O=C(C1CC1)N1CCN(c2ccnc3[nH]c(-c4ccc(C5(O)CCOCC5)cc4)cc23)CC1 [Compound 386]
- IC50 [1]: ≤ 10 nM
- IC50 (human ALK2 R206H): ≤ 100 nM

Compound: C[Si](C)(O)c1ccc(-c2cc3c(N4CCN(C(=O)C5CC5)CC4)ccnc3[nH]2)cc1 [Compound 287]
- IC50 [1]: ≤ 10 nM
- IC50 (human ALK2 R206H): 100 to 500 nM

Compound: CCN1CC[C@@H](c2ccc(-c3cc4c(N5CCN(C(=O)C6CC6)CC5)ccnc4[nH]3)cc2)C(F)(F)C1 [Compound 458]
- IC50 [1]: ≤ 10 nM
- IC50 (human ALK2 R206H): ≤ 100 nM

Compound: O=C(C1CC1)N1CCN(c2ccnc3[nH]c(-c4ccc(N5CCN(CC(F)F)CC5)cc4)cc23)CC1 [Compound 461]
- IC50 [1]: ≤ 10 nM
- IC50 (human ALK2 R206H): 100 to 500 nM

Compound: N#Cc1c(-c2cn3c(n2)CCC3)[nH]c2nccc(N3CCN(C(=O)OC4COC4)CC3)c12 [Compound 342]
- IC50 [1]: ≤ 10 nM
- IC50 (human ALK2 R206H): ≤ 100 nM

Compound: Cn1cc(-c2[nH]c3nccc(N4CCN(C(=O)OC5COC5)CC4)c3c2C#N)cn1 [Compound 207]
- IC50 [1]: ≤ 10 nM
- IC50 (human ALK2 R206H): ≤ 100 nM

Compound: Cc1nc(-c2[nH]c3nccc(N4CCN(C(=O)OC5CC5)CC4)c3c2C#N)cn1C [Compound 201]
- IC50 [1]: ≤ 10 nM
- IC50 (human ALK2 R206H): ≤ 100 nM

Compound: CCN1CCN(c2ccc(-c3cc4c(N5CCN(C(=O)C6CC6)CC5)ccnc4[nH]3)c(OC(F)(F)F)c2)CC1 [Compound 477]
- IC50 [1]: ≤ 10 nM
- IC50 (human ALK2 R206H): ≤ 100 nM

Compound: O=C(C1CC1)N1CCN(c2ccnc3[nH]c(-c4ccc(C5CCN(C6COC6)CC5)cc4)cc23)CC1 [Compound 451]
- IC50 [1]: ≤ 10 nM
- IC50 (human ALK2 R206H): ≤ 100 nM

Compound: Cn1cc(-c2[nH]c3nccc(N4CCN(C(=O)OC5CCC5)CC4)c3c2Cl)cn1 [Compound 255]
- IC50 [1]: ≤ 10 nM
- IC50 (human ALK2 R206H): ≤ 100 nM

Compound: Cn1cnc(-c2cc3c(N4CCN(C(=O)OC5CCC5)CC4)ccnc3[nH]2)c1 [Compound 76]
- IC50 [1]: ≤ 10 nM
- IC50 (human ALK2 R206H): ≤ 100 nM

Compound: Cn1cc(-c2cc3c(N4CCN(C(=O)OC5COC5)CC4)ccnc3[nH]2)cc1C#N [Compound 203]
- IC50 [1]: ≤ 10 nM
- IC50 (human ALK2 R206H): ≤ 100 nM

Compound: N#Cc1ccc(-c2cc3c(N4CCN(C(=O)OC5COC5)CC4)ccnc3[nH]2)nc1 [Compound 192]
- IC50 [1]: ≤ 10 nM
- IC50 (human ALK2 R206H): 100 to 500 nM

Compound: Cn1cc(-c2cc3c(N4CCN(C(=O)OC5COC5)CC4)ccnc3[nH]2)nn1 [Compound 105]
- IC50 [1]: ≤ 10 nM
- IC50 (human ALK2 R206H): 100 to 500 nM

Compound: O=C(OC1COC1)N1CCN(c2ccnc3[nH]c(-c4cn([C@@H]5CCOC5)cn4)cc23)CC1 [Compound 358]
- IC50 [1]: ≤ 10 nM
- IC50 (human ALK2 R206H): 100 to 500 nM

Compound: Cc1nc(-c2cc3c(N4CCN(C(=O)OCC(F)F)CC4)ccnc3[nH]2)sc1C [Compound 291]
- IC50 [1]: ≤ 10 nM
- IC50 (human ALK2 R206H): ≤ 100 nM

Compound: Cn1cc(-c2cc3c(N4CCN(C(=O)OCC(F)F)CC4)ccnc3[nH]2)cn1 [Compound 126]
- IC50 [1]: ≤ 10 nM
- IC50 (human ALK2 R206H): ≤ 100 nM

Compound: CCN1CCC(c2ccc(-c3cc4c(N5CCN(C(=O)C6CC6)CC5)ccnc4[nH]3)cc2)C(F)C1 (stereo not drawn) [Compound 442]
- IC50 [1]: ≤ 10 nM
- IC50 (human ALK2 R206H): ≤ 100 nM

Compound: Cn1cnc(-c2[nH]c3nccc(N4CCN(C(=O)OC5CC(F)(F)C5)CC4)c3c2C#N)c1 [Compound 370]
- IC50 [1]: ≤ 10 nM
- IC50 (human ALK2 R206H): ≤ 100 nM
